The text below walks through data of ChEMBL document CHEMBL1833833, “Design and synthesis of long acting inhaled corticosteroids for the treatment of asthma” (Bioorg Med Chem Lett, 2011).

In one series the test system is Blood. Briefly: Inhibition of TNFalpha release in LPS-stimulated human whole blood by ELISA assay. The class given is functional, tissue-based. In general terms: An ELISA detects its analyte on a solid surface through an enzyme-linked reagent.
A further series relates to PBMC. Kind of series: Inhibition of TNFalpha release in human PBMC by ELISA assay. It counts as functional, cell-based.
The target of the next series is T1, Glucocorticoid receptor (Homo sapiens, UniProt P04150).
T1 sequence (P04150 whole entry): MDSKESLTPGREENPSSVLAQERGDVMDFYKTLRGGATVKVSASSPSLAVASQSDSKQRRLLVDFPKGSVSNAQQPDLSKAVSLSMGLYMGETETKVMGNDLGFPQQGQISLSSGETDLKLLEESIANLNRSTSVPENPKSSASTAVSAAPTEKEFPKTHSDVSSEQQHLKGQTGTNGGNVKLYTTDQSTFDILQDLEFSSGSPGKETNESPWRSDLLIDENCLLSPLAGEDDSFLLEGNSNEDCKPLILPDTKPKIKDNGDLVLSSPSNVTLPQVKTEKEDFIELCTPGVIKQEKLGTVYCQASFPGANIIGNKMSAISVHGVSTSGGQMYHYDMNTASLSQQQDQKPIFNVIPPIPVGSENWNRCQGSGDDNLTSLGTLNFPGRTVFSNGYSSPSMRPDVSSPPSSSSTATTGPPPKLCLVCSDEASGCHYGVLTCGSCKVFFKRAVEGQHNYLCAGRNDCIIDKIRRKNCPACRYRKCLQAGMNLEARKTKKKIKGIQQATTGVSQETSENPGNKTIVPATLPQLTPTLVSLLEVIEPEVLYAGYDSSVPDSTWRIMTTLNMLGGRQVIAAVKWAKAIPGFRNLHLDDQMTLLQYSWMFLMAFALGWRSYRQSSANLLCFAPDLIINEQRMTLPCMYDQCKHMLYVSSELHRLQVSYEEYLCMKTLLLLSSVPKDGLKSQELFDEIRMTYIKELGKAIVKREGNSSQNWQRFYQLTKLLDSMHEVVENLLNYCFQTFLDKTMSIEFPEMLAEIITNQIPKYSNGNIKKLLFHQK

For series [1], the system named is Rattus norvegicus. Kind of series: Antiinflammatory activity in rat assessed as inhibition of LPS-induced lung neutrophilia 10 ug, intratracheally administered 1 hr prior to LPS challenge measured after 2 hrs. The class given is functional.
In the next series the test system is Liver microsomes. Kind of series: Metabolic stability of compound in human liver microsomes assessed as unbound intrinsic clearance by equilibrium dialysis. The class given is ADME, Microsome. On the technique in general: Liver microsomes are a subcellular fraction often used to study metabolism.
Series [2] concerns Rattus norvegicus. Briefly: Clearance in rat at 0.5 mg/kg, iv. The class given is ADME, organism-based. Also on record: dose 0.5 mg/kg, route intravenous. Conditions: in vivo.
A short description of series [3]: Oral bioavailability in rat at 2 mg/kg. The class given is ADME, organism-based. Conditions: in vivo.
Series [4] relates to Rattus norvegicus. Kind of series: Antiinflammatory activity in rat assessed as inhibition of LPS-induced lung neutrophilia 10 ug, intratracheally administered 1 hr prior to LPS challenge measured after 1 hr. It counts as functional.
Series [5] is described as follows: Antiinflammatory activity in rat assessed as inhibition of LPS-induced lung neutrophilia 10 ug, intratracheally administered 1 hr prior to LPS challenge measured after 8 hrs. It counts as functional, Neutrophil.
The target of series [6] is T2, Glucocorticoid receptor (Homo sapiens) (UniProt P04150).
T2 sequence (whole entry): T1 sequence (P04150 whole entry)
Description: Agonist activity at human GR assessed as dissociation half life

A short description of series [7]: Antiinflammatory activity in rat assessed as inhibition of LPS-induced lung neutrophilia 10 ug, intratracheally administered 1 hr prior to LPS challenge measured after 4 hrs. The class given is functional, Neutrophil.
The nature of series [8]: Solubility of compound in simulated lung fluid by dialysis bag method. It counts as physicochemical.
The nature of series [9]: Antiinflammatory activity in rat assessed as effective dose for inhibition of LPS-induced lung neutrophilia administered intratracheally 4 hr prior to LPS challenge. It counts as functional, Neutrophil.
The subject of series [10] is Rattus norvegicus. Kind of series: Unbound clearance in rat at 0.5 mg/kg, iv. Conditions: in vivo. Also noted: dose 0.5 mg/kg, route intravenous. The class given is ADME, organism-based.
Series [11] in a line: Half life in rat. It counts as ADME, organism-based. The note with it: in vivo.
A short description of series [12]: Metabolic stability in human liver microsomes assessed as phase 2 glucuronidation in presence of UDPGA. Conditions: read-out: Stability. It counts as ADME, Microsome.
Series [13] can be described thus: Metabolic stability of compound in human liver microsomes assessed as intrinsic clearance by equilibrium dialysis. It counts as ADME, Microsome.

Converted amounts (≈) assume the structure as drawn.

With `C[C@@H]1C[C@H]2[C@@H]3C[C@H](F)C4=CC(=O)C=C[C@]4(C)[C@@]3(F)[C@@H](O)C[C@]2(C)[C@@]1(OC(=O)c1ccco1)C(=O)SCF` [FLUTICASONE FUROATE], the IC50 – broadly, the concentration needed to halve the response being measured – with Blood was 43 nM; in the series with PBMC, 0.05 nM.
In the series with PBMC, `C[C@]12C=CC(=O)C=C1[C@@H](F)C[C@H]1[C@@H]3C[C@H]4O[C@@H](c5ccc(CSc6cccc(O)c6)cc5)O[C@@]4(C(=O)CO)[C@@]3(C)C[C@H](O)[C@@]12F` came in with an IC50 of 0.15 nM.
In the case of `C[C@]12C=CC(=O)C=C1[C@@H](F)C[C@H]1[C@@H]3C[C@H]4O[C@@H](c5ccc(SCc6ccccc6)cc5)O[C@@]4(C(=O)CO)[C@@]3(C)C[C@H](O)[C@@]12F`, in the series with PBMC, inhibition was half-maximal at 0.16 nM (IC50).
The same measure, in the same setting: under `C[C@]12C=CC(=O)C=C1[C@@H](F)C[C@H]1[C@@H]3C[C@H]4O[C@@H](c5ccc(CSc6ccccc6)cc5)O[C@@]4(C(=O)CO)[C@@]3(C)C[C@H](O)[C@@]12F` stands 0.22 nM; under `C[C@]12C=CC(=O)C=C1[C@@H](F)C[C@H]1[C@@H]3C[C@H]4O[C@@H](c5ccc(Oc6ccccc6)cc5)O[C@@]4(C(=O)CO)[C@@]3(C)C[C@H](O)[C@@]12F`, 0.09 nM.
Compound `C[C@]12C=CC(=O)C=C1[C@@H](F)C[C@H]1[C@@H]3C[C@H]4O[C@@H](c5ccc(OC6=CCC(=O)N=N6)cc5)O[C@@]4(C(=O)CO)[C@@]3(C)C[C@H](O)[C@@]12F` came in with an IC50 in the series with PBMC of 0.12 nM. The EC50 (in general, the concentration needed to bring the measured effect to its halfway point) on Glucocorticoid receptor is 21.1 nM.
`C[C@]12C=CC(=O)C=C1[C@@H](F)C[C@H]1[C@@H]3C[C@H]4O[C@@H](c5ccc(Cc6ccccc6)cc5)O[C@@]4(C(=O)CO)[C@@]3(C)C[C@H](O)[C@@]12F`: the IC50 with PBMC worked out at 0.17 nM.
As to `C[C@]12C=CC(=O)C=C1[C@@H](F)C[C@H]1[C@@H]3C[C@H]4O[C@@H](c5ccc(-c6ccccc6)cc5)O[C@@]4(C(=O)CO)[C@@]3(C)C[C@H](O)[C@@]12F`, in the series on PBMC, the IC50 stood at 0.41 nM.
Consider `CCCC1O[C@@H]2C[C@H]3[C@@H]4CCC5=CC(=O)C=C[C@]5(C)[C@H]4[C@@H](O)C[C@]3(C)[C@]2(C(=O)CO)O1` (stereo not given in full) [BUDESONIDE], for which the IC50 in the series with Blood was found to be 8.46 nM; in the series with PBMC, 0.96 nM.
In the series with PBMC, `C[C@]12C=CC(=O)C=C1[C@@H](F)C[C@H]1[C@@H]3C[C@H]4O[C@@H](c5ccc(CSc6ccc(O)cc6)cc5)O[C@@]4(C(=O)CO)[C@@]3(C)C[C@H](O)[C@@]12F` yielded an IC50 of 0.06 nM.
For `CCC(=O)O[C@]1(C(=O)SCF)[C@H](C)C[C@H]2[C@@H]3C[C@H](F)C4=CC(=O)C=C[C@]4(C)[C@@]3(F)[C@@H](O)C[C@@]21C` [FLUTICASONE PROPIONATE], the IC50 in the series on Blood turned out to be 9.3 nM; in the series on PBMC, 0.1 nM. The “inhibition (INH)” value is 11% in the series with Rattus norvegicus [1], 29% with Rattus norvegicus [4], 10% in series [5] and 8% in series [7]. Moreover, the CL free with Liver microsomes amounted to 300 µL/min/mg; with Rattus norvegicus [10] it was 1800 mL/min/kg. Also, the clearance – broadly, the volume of plasma or blood freed of the substance per unit of time – in the series on Rattus norvegicus [2] stood at 56 mL/min/kg. For the same compound, the bioavailability – broadly, dose-corrected exposure relative to a reference, in per cent – in series [3] is less than 2%. Also, the T1/2 in [6] turned out to be 9.07 h. Also, the concentration in solution in [8] (solubility) came to 0.32 µg/mL (≈ 0.639 µM). Also, the ED50 in series [9] came to 3 µg. The half-life (usually how long it takes for the measured level to halve) in series [11] is 1.1 h. Moreover, the microsomal CLint in series [12] is less than 3.5 µL/min/mg; in [13] it was 51 µL/min/mg.
In the series on PBMC, `C[C@]12C=CC(=O)C=C1[C@@H](F)C[C@H]1[C@@H]3C[C@H]4O[C@@H](c5ccc(Cc6ccc(O)cc6)cc5)O[C@@]4(C(=O)CO)[C@@]3(C)C[C@H](O)[C@@]12F` showed an IC50 of 0.04 nM.
Same read-out and setting: under `C[C@]12C=CC(=O)C=C1[C@@H](F)C[C@H]1[C@@H]3C[C@H]4O[C@@H](c5ccc(CN6CCOCC6)cc5)O[C@@]4(C(=O)CO)[C@@]3(C)C[C@H](O)[C@@]12F` stands 1.81 nM.
As to `CSc1cccc(Sc2ccc([C@@H]3O[C@@H]4C[C@H]5[C@@H]6C[C@H](F)C7=CC(=O)C=C[C@]7(C)[C@@]6(F)[C@@H](O)C[C@]5(C)[C@]4(C(=O)CO)O3)cc2)c1`, the IC50 was found to be 47.4 nM with Blood and 0.1 nM in the series on PBMC. Further, the figures for the CL free in the series with Liver microsomes and in the series with Rattus norvegicus [10] were greater than 3080 µL/min/mg and greater than 18000 mL/min/kg, respectively. Besides, in the series on Rattus norvegicus [2], the clearance is 26 mL/min/kg. Besides, in [3], the bioavailability is less than 0.5%. In addition, in series [11], the half-life is 1.9 h. For the same compound, the microsomal CLint was less than 3.5 µL/min/mg in [12] and 154 µL/min/mg in series [13].
